Measurements as given in US20100190851A1, “Use of Entacapone in cosmetic, dermatological and pharmaceutical compositions” (priority 2007, published 2010).

What was measured:
[1] = system: neutrophil infiltration into the peritoneum; assay: Thioglycollate-induced peritonitis in mice; assay type: in vivo
Protocol: The compound of formula (I) is investigated in a thioglycollate-induced peritonitis model in mice employing standard method (see A. E. R. Hicks et al., J. Leukoc. Biol. 2005, 77, 59-66; M. C. Montesinos et al., Arthritis Res. Ther. 2006, 8(2): R53-R59).
Groups of 10 male mice weighting 24±2 g are used. Peritonitis is induced by intraperitoneal (i.p.) injection of 1 ml 4% thioglycollate medium in 0.9% NaCl to cause neutrophil infiltration into the peritoneum. The compound of formula (I) is dissolved in DMSO, diluted with PBS (phosphate buffered saline) and adjusted to neutral pH with NaOH. The solution of the compound of formula (I) and vehicle is administered intravenously (i.v.) 15 minutes or by oral gavage (p.o.) 60 minutes before thioglycollate medium challenge. The steroid compound Dexamethasone (3 mg/kg, p.o.; known product for rheumatoid arthritis) as the positive control compound is administered by oral gavage 60 minutes before thioglycollate medium challenge.
After 4 hr of induction, neutrophil counts are determined by Automated Hematology Analyzer (provider: Sysmex, XT-2000i equipped with XT-2000iV software) in peritoneal lavage (3 ml PBS) harvested from animals sacrificed by CO2 asphyxiation.
Normal control groups are mock induced by i.p. injection of 0.9% NaCl Inhibition of 30% or more (≧30) in the neutrophil count relative to the vehicle control is considered significant and indicates possible anti-inflammatory activity.
The compound of formula (I) is administered i.v. in different doses, 25 mg/kg, 10 mg/kg, 5 mg/kg, 1 mg/kg, 0.5 mg/kg and 0.25 mg/kg. The compound of formula (I) is also administered p.o. in different doses, 500 mg/kg, 250 mg/kg, 100 mg/kg, 50 mg/kg, 25 mg/kg, 10 mg/kg, 5 mg/kg and 1 mg/kg.

[2] = system: human E-selectin-IgG chimera; assay: Flow chamber assay, attachment of HL-60 cells to E-selectin; assay type: cell-based; design: dose or concentration left out as unconfirmed; settings: flow shear 1 dyne/cm^2; after 5 minutes continuous flow
Protocol: (§1) Flow Chamber Assay/Cell Adhesion and Rolling under Flow Conditions
(§2) To assess the capability of compound of formula (I) to inhibit cell binding under dynamic conditions resembling the flow in a blood vessel, flow chamber assays addressing/testing binding of HL-60 cells/various cell lines to P-selectin, and E-selectin chimeric molecules are performed.
(§3) Cell attachment under flow conditions is determined using a parallel flow chamber system. […]
(§4) After washing with assay buffer (“Roswell Park Memorial Institute 1640” (RPMI 1640)+10 mM HEPES) the dish is fitted into a parallel plate laminar flow chamber (sold from Glycotech, Rockville, Md.) and mounted on an inverted phase-contrast microscope (sold from Olympus, Hamburg, Germany) equipped with a CCD camera (JVC) that is connected to a PC. […] The flow rate is then decreased resulting in a calculated flow shear of 1 dyne/cm^2. Video sequences of 10 low power fields are digitally recorded after 5 minutes continuous flow. The percentage of inhibition is calculated from the mean number of cells per field that attached to the coated dish surface in the presence versus absence of compound of formula (I) of at independent experiments. […]

[3] = target: T1, human L-Selectin-IgG-chimera (Homo sapiens, UniProt P14151); assay: Sialyl Lewis^X Tyrosine Sulfate Assay (sLe^X TSA), L-selectin; settings: binding of L-selectin chimera to sLe^X-tyrosine sulfate polyacrylamide
T1 construct: fused on or other part: human IgG Fc part, fused on as a capture and dimerising handle (captured by goat anti human Fc antibody)
T1 sequence (P14151 39-318 limits assumed): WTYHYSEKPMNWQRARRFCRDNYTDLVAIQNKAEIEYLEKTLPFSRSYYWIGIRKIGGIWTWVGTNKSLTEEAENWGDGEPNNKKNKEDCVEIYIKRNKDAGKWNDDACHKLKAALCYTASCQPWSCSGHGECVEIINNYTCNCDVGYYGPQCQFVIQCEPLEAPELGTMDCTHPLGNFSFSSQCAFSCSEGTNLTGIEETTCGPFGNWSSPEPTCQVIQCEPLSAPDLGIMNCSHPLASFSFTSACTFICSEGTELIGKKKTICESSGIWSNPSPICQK
Protocol: Sialyl Lewis^X Tyrosine Sulfate Assay (sLe^X TSA):
Compound of formula (I) is assayed on a molecular level for the ability to inhibit the binding of P- and L-selectin chimeric molecules to sLe^X and tyrosinesulfate residues linked to a polymeric matrix as a PSGL-1 substitute. IC50-values are determined.
Microtiter plates are coated overnight in carbonate buffer pH9.6 with goat anti human Fc mAB (10 μg/ml). After washing in assay buffer (25 mM 4-(2-hydroxyethyl)-1-piperazineethanesulfonic acid (HEPES), 150 mM NaCl, 1 mM CaCl2 pH7.4) and blocking (3% bovine serum albumin (BSA) in assay buffer) plates are incubated for 2 h at 37° C. with human P-Selectin-IgG-chimera (0.61 nM respectively 150 ng/mL) or human L-Selectin-IgG-chimera (0.61 nM respectively 89 ng/mL). 5 μl of sLe^X-tyrosine sulfate polyacrylamide (1 mg/ml) carrying 15% sLe^X, 10% Tyrosine-sulfate and 5% biotin is complexed with 20 μl Streptavidin-Peroxidase solution (1 mg/ml) and 25 μl assay buffer without CaCl2. […]
After incubation for 2 h at 37° C., wells are washed for six times with in assay buffer incl. […] Bound sLe^X-Tyrosine sulfate ligand complex is determined by measuring optical density at 450 nm vs. 620 nm in a Fusion alpha-FP reader (sold from Packard Bioscience, Dreieich, Germany). […]

[4] = system: Jurkat T-cells (attachment to E-Selectin); assay: Modulation of T-cells: flow chamber assay with pre-treated Jurkat cells, E-selectin; assay type: cell-based; settings: cells pre-incubated 5 minutes with compound, washed twice; flow chamber as Example 2
Protocol: (§5) Cell attachment under flow conditions is determined using a parallel flow chamber system. A 35 mm polystyrene culture dish is coated for 1 h at room temperature with coating buffer (50 mM tris-(hydroxymethyl) aminomethane buffer (Tris), 150 mM NaCl, 2 mM CaCl2; pH 7.4) containing human E- or P-selectin-IgG chimera at concentrations of […], respectively. After removal of the coating solution non specific binding sites are blocked for an additional hour with 1% BSA in coating buffer at room temperature.
as §4

[5] = Skin penetration, parallel artificial membrane permeability assay (skin-PAMPA); assay type: in vitro ADME
Protocol: To predict passive human skin permeability of compound of formula (I) a parallel artificial membrane permeability assay is performed that mimics the main barrier properties of human stratum corneum (skin-PAMPA).
The filter of the donor compartment of a hydrophobic PVDF 96-well microtiter filter plate (Millipore, Schwalbach, Germany) is coated with a mixture of 70% silicone and 30% isopropyl myristate dissolved in hexane. After evaporation of solvent the donor compartment is filled with buffer (pH 4) containing compound of formula (I) and assembled to the acceptor compartment filled with buffer (pH 4). The assembled plate is incubated at room temperature for 16 hours. Absorbance of compound of formula (I) in the dissembled acceptor compartment is measured with a photometer (Spectramax, Molecular Devices, Sunnyvale, Calif., USA). Permeation (% flux) of compound of formula (I) through the coated filter (artificial membrane) is calculated based on equilibrium absorbance.

[6] = target: T2, human P-Selectin-IgG-chimera (Homo sapiens, UniProt P16109); assay: Sialyl Lewis^X Tyrosine Sulfate Assay (sLe^X TSA), P-selectin; settings: binding of P-selectin chimera to sLe^X-tyrosine sulfate polyacrylamide
T2 construct: fused on or other part: human IgG Fc part, fused on as a capture and dimerising handle (captured by goat anti human Fc antibody)
T2 sequence (P16109 42-195 limits assumed): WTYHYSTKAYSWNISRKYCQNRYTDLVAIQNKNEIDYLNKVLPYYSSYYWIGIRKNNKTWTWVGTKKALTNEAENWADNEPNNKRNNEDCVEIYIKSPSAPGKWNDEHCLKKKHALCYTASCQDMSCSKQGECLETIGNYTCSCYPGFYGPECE
Protocol: IC50-values are determined.
Microtiter plates are coated overnight in carbonate buffer pH9.6 with goat anti human Fc mAB (10 μg/ml).
After incubation for 2 h at 37° C., wells are washed for six times with in assay buffer incl. 0.005% Polyoxyethylenesorbitan monolaurate (TWEEN 20), developed for 10-15 min with 20 μl 3,3′,5,5′-tetramethylbenzidine (TMB)/H202 substrate solution and stopped with 20 μl 1 M H2SO4.

[7] = system: human P-selectin-IgG chimera; assay: Flow chamber assay, attachment of HL-60 cells to P-selectin; assay type: cell-based; design: dose or concentration left out as unconfirmed; settings: flow shear 1 dyne/cm^2; after 5 minutes continuous flow
Protocol: as §1, §2, §3, §4

[8] = system: Jurkat T-cells (attachment to P-Selectin); assay: Modulation of T-cells: flow chamber assay with pre-treated Jurkat cells, P-selectin; assay type: cell-based; settings: cells pre-incubated 5 minutes with compound, washed twice; flow chamber as Example 2
Protocol: as §5, §4

Row | Compound | inhibition of neutrophil influx compared with dexamethasone (3 mg/kg, p.o.) ([1]; depending on the dose) | inhibition of neutrophil influx (in words) ([1]; i.v. 0.25-25 mg/kg or p.o. 1-500 mg/kg, inhibition of 30% or more considered significant) | inhibition of neutrophil influx (inhibition rate) ([1]; i.v. and p.o. at different doses before thioglycollate, neutrophil count 4 hr after induction) | % inhibition of attachment of HL-60 cells, E-Selectin [2] [%] | IC50 [3] [µM] | % inhibition of attachment of Jurkat cells (pre-treated), E-Selectin [4] [%] | Permeation (% flux) ([5]; 70% silicone / 30% isopropyl myristate membrane, pH 4, room temperature, 16 hours) [%] | skin penetration (in words) ([5]; skin-penetration assay, Example 4) | IC50 [6] [µM] | % inhibition of attachment of HL-60 cells, P-Selectin [7] [%] | % inhibition of attachment of Jurkat cells (pre-treated), P-Selectin [8] [%]
1 | CCN(CC)C(=O)/C(C#N)=C/c1cc(O)c(O)c([N+](=O)[O-])c1 [compound of formula (I), (2E)-2-cyano-3-(3,4-dihydroxy-5-nitrophenyl)-N,N-diethylacrylamide] | comparable or better | significant inhibition of neutrophil influx | more than 30% | 30 | 1250 | 30 | >60 | high penetration | 189 | 36 | 39
2 | sialyl Lewis X [sLe^X] | – | – | – | – | > 3600 | – | – | – | – | – | –
